ChEMBL document CHEMBL4152303, “Structure-activity relationships of imidazothiazinones and analogs as antagonists of the cannabinoid-activated orphan G protein-coupled receptor GPR18” (Eur J Med Chem, 2018)

Legend:
[1] = molecular target: T1, N-arachidonyl glycine receptor (Homo sapiens) (UniProt Q14330); test: (§1) Antagonist activity at recombinant human GPR18 expressed in CHO cells assessed as inhibition of delta9-THC-induced beta-arrestin recruitment preincubated for 60 mins followed by delta9-THC addition for 90 mins measured for 1 sec by luminescence assay; assay type: functional, cell-based
T1 sequence (whole entry): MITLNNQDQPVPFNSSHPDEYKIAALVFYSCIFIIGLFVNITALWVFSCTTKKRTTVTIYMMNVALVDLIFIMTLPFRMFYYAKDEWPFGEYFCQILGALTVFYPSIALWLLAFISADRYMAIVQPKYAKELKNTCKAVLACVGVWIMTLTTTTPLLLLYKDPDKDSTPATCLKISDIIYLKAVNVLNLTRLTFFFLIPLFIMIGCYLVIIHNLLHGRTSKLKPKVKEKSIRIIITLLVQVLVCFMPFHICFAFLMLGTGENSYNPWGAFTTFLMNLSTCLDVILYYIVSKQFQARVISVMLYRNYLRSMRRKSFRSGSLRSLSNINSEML

[2] = molecular target: T2, N-arachidonyl glycine receptor (Homo sapiens, UniProt Q14330); test: as §1; assay type: functional, cell-based
T2 sequence (Q14330 whole entry): T1 sequence (whole entry)

[3] = molecular target: T1, N-arachidonyl glycine receptor (Homo sapiens); test: (§2) Agonist activity at recombinant human GPR18 expressed in CHO cells assessed as increase in beta-arrestin recruitment incubated for 60 mins measured for 1 sec by luminescence assay; assay type: functional, cell-based
[4] = molecular target: T2, N-arachidonyl glycine receptor; test: as §2; assay type: functional, cell-based
[5] = molecular target: T3, G-protein coupled receptor 55 (Homo sapiens, UniProt Q9Y2T6); test: Antagonist activity at recombinant human GPR55 expressed in CHO cells assessed as inhibition of lysophosphatidylinositol-induced beta-arrestin recruitment preincubated for 60 mins followed by lysophosphatidylinositol addition for 90 mins measured for 1 sec by luminescence assay; assay type: functional, cell-based
T3 sequence (Q9Y2T6 whole entry): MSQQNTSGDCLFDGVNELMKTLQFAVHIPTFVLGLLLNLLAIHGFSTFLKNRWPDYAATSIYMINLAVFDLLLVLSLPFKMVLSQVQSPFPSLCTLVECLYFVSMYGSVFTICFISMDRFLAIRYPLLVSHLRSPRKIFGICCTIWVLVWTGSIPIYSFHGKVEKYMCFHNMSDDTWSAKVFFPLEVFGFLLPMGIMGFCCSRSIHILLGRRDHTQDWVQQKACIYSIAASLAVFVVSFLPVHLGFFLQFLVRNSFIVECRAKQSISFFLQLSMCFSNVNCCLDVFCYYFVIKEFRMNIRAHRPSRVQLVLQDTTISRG

[6] = molecular target: T3, G-protein coupled receptor 55; test: Agonist activity at recombinant human GPR55 expressed in CHO cells assessed as increase in beta-arrestin recruitment incubated for 60 mins measured for 1 sec by luminescence assay; assay type: functional, cell-based
[7] = molecular target: Cannabinoid receptor 1 (Homo sapiens, UniProt P21554); test: Displacement of [3H]CP55940 from recombinant human CB1 receptor expressed in CHO cell membranes after 2 hrs by liquid scintillation counting method; conditions: for inhibition: concentration not given here
Cannabinoid receptor 1, sequence (P21554 whole entry): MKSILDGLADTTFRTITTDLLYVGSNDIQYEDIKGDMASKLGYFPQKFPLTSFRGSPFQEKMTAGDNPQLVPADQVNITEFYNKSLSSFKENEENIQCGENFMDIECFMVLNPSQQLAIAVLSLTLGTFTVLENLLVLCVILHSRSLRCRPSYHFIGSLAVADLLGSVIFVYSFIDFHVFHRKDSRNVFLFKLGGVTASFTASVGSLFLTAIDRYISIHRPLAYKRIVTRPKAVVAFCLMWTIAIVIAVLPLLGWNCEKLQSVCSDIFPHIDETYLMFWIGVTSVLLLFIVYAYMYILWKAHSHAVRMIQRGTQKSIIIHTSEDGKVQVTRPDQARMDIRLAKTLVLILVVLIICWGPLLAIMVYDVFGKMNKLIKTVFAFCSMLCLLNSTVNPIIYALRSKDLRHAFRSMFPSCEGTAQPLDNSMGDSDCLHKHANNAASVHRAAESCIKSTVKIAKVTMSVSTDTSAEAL

[8] = molecular target: Cannabinoid receptor 2 (Homo sapiens, UniProt P34972); test: Displacement of [3H]CP55940 from recombinant human CB2 receptor expressed in CHO cell membranes after 2 hrs by liquid scintillation counting method; conditions: for inhibition: concentration not given here
Cannabinoid receptor 2, sequence (P34972 whole entry): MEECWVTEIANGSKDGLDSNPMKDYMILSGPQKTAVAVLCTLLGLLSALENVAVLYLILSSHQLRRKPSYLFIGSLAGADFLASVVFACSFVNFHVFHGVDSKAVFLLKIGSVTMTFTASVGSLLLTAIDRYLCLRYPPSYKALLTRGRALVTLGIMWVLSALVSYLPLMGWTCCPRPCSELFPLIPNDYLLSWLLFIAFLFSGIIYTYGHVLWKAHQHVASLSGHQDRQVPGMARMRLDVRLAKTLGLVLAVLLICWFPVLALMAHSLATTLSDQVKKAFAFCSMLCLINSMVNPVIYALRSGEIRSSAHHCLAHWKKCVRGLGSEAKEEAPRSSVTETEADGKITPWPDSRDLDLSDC

Row | SMILES | Imax [1] [%] | IC50 [2] [µM] | %max [3] [%] | EC50 [4] [µM] | IC50 [5] [µM] | Imax [5] [%] | %max [6] [%] | EC50 [6] [µM] | Ki [7] [µM] | inhibition [7] [%] | Ki [8] [µM] | inhibition [8] [%] | inhibition [1] [%] | Imax [7] [%]
1 | O=C1NC(=S)N/C1=C\c1cccc(OCc2ccc(Cl)cc2)c1 | 165 | 33 | -14 | > 10 | 32.4 | 118 | 5 | > 10 | > 10 | 30 | > 10 | 19 |  | 
2 | CN1C(=N)NC(=O)/C1=C/c1cccc(OCc2ccc(Cl)cc2)c1 | 4 | > 10 | 6 | > 10 | > 10 | -5 | 22 | > 10 | > 10 | 43 | 22.8 |  |  | 
3 | Cc1cccc(C)c1OCCCCCCOc1cccc(/C=C2\N=C3SCCCN3C2=O)c1 |  | 10 | 3 | > 10 | > 10 | 32 | 33 | > 10 | > 10 | 13 | > 10 | 46 | 55 | 
4 | O=C1/C(=C/c2cccc(OCCCCCOc3ccc(Cl)cc3)c2)N=C2SCCCN12 | 123 | 1.14 | -38 | > 10 | 3.77 | 124 | -21 | > 10 | > 10 | 8 | > 10 |  |  | 
5 | O=C1N=C2SCCN2/C1=C\c1cccc(OCc2ccc(Cl)cc2)c1 | 25 | > 10 | 13 | > 10 | > 10 | 19 | 2 | > 10 | 1.67 |  | > 10 | 41 |  | 60
6 | CC(C)c1ccc(OCCCCCCOc2cccc(/C=C3\N=C4SCCCN4C3=O)c2)cc1 | 24 | > 10 | 15 | > 10 | > 10 | 32 | 45 | > 10 | > 10 | 33 | > 10 | 46 |  | 
7 | Cc1ccc(CSC2=N/C(=C\c3cccc(OCc4ccc(Cl)cc4)c3)C(=O)N2)cc1 | 0 | > 10 | 4 | > 10 | > 10 | 48 | -12 | > 10 | > 10 | 38 | > 10 | 22 |  | 
8 | O=C1/C(=C/c2cccc(OCCc3ccccc3)c2)N=C2SCCCN12 | 16 | > 10 | 8 | > 10 | 29.3 | 130 | -42 | > 10 | > 10 | 24 | > 10 | 19 |  | 
9 | O=C1/C(=C/c2cccc(OCc3ccc(Br)cc3)c2)N=C2SCCCN12 | 74 | 1.73 | -9 | > 10 | 45.8 | 116 | -19 | > 10 | > 10 | 4 | > 10 | 4 |  | 
10 | O=C1/C(=C/c2cccc(OCCCCCCCCOc3ccc(Cl)cc3)c2)N=C2SCCCN12 | 124 | 1.15 | -25 | > 10 | > 10 | 43 | -18 | > 10 | > 10 | -9 | > 10 | -3 |  | 
11 | O=C1NC(SCCc2ccccc2)=N/C1=C\c1cccc(OCc2ccc(Cl)cc2)c1 | 103 | 4.78 | 2 | > 10 | > 10 | 27 | 21 | > 10 | > 10 | 18 | > 10 | 33 |  | 
12 | O=C1/C(=C/c2cccc(OCCCCCCCOc3ccc(Cl)cc3)c2)N=C2SCCCN12 | 97 | 1.71 | 3 | > 10 | > 10 | 16 | 34 | > 10 | > 10 | 46 | > 10 | 15 |  | 
13 | Cc1ccc(OCCCCCCOc2cccc(/C=C3\N=C4SCCCN4C3=O)c2)cc1 | 81 | 0.238 | -12 | > 10 | 2.91 | 86 | 35 | > 10 | > 10 | 9 | > 10 | 12 |  | 
14 | O=C1/C(=C/c2cccc(OCCCc3ccccc3)c2)N=C2SCCCN12 | 136 | 1.49 | -30 | > 10 | 6.04 | 132 | -49 | > 10 | > 10 | 11 | > 10 | 23 |  | 
15 | CCc1ccc(OCCCCCCOc2cccc(/C=C3\N=C4SCCCN4C3=O)c2)cc1 | 99 | 25 | 0 | > 10 | > 10 | 37 | 47 | > 10 | > 10 | 13 | > 10 | 13 |  | 
16 | O=C1NC(=O)/C(=C/c2cccc(OCc3ccc(Cl)cc3)c2)S1 | -10 | > 10 | -1 | > 10 | > 10 | -1 | 22 | > 10 | 5.04 |  | > 10 | 41 |  | 67
17 | O=C1/C(=C/c2cccc(OCCCCCCOc3cccc(Cl)c3)c2)N=C2SCCCN12 | 55 |  | 0 | > 10 | > 10 | 37 | 28 | > 10 | > 10 | 33 | > 10 | 46 |  | 
